The test system of assay [1] is human pancreatic cancer Mia PaCa-2 xenograft tumors. Kind of assay: Antitumor activity in mice, Mia PaCa-2 xenograft. Format: in vivo. The following applies: Mia PaCa-2 xenograft in nude mice; for Anti-tumor effect (regression): 10 mg/kg, qd*21, intragastric; for in vivo activity compared with control drug B: 10 mg/kg/day, 21 days. How it is done: Human pancreatic cancer Mia PaCa-2 cells were cultured conventionally in 1640 medium containing 10% fetal bovine serum in a 37° C./5% CO2 incubator. After being subcultured, the cells were collected when they reached the desired amount. 1×10^7 Mia PaCa-2 cells were injected into the left dorsal side of each nude mouse, and the animals were randomly grouped for administration after tumors grew to 150 mm^3. The groups were as follows: 1) solvent control group, 8 mice; 2) compound 6 group, compound 14 group, compound 28 group, compound 44 group, compound 60 group, compound 103 group and control drug B (Example 35 in WO2018/143315), 8 mice in each group. The mice in the solvent control group was intragastrically administered with 0.5% CMC-Na once a day; and the mice in the compound groups were intragastrically administered with 0.5% CMC-Na suspension once a day. On Tuesday and Thursday each week, tumor volumes and body weight of the mice were measured, and the nude mice were sacrificed on day 21 during the treatment period.

The test system of another assay is pERK level in H358 cells. Kind of assay: pERK and ERK protein content assay in H358 cells (ELISA). Format: cell-based. The following applies: Homo sapiens, NCI-H358, pERK/ERK ratio vs DMSO group, compound 1 μM, 24 h, read-out: Inhibition rate (%). In a few lines:
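H358 cells grown one day, then treated 24 h with compound at 1 μM. pERK and ERK in lysates measured by ELISA; pERK/ERK ratio expressed as percent inhibition versus DMSO.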
In general terms: ELISA stands for enzyme-linked immunosorbent assay.

A further assay concerns H358 cells. Kind of assay: Antiproliferative activity against H358 cells (Cell Titer Glow, ultra-low attachment plate). It counts as cell-based. The note with it: Homo sapiens, NCI-H358, 72 h, three days after addition of compound. How it is done:
2500 H358 cells were seeded in a 96-well ultra-low attachment plate (corning, 7007). After one day of growth, a serially diluted compound (a maximum concentration of 5 μM, 5-fold dilution, a total of five doses) was added. Three days after the addition of the compound, Cell Titer Glow (Promega, G9681) was added to evaluate pellet growth, and the IC50 value was calculated.
In general terms: Cellular ATP, detected with luciferase, serves as a proxy for viable cell number.

SMILES strings stand for the structures.

One may read the inhibition as the relative decrease from the control value, in per cent. Usually IC50 stands for the concentration needed to halve the response being measured. High values mean a need for much substance, low ones inhibition by little substance. `C=CC(=O)N1CC2(CCN(c3nc(N4CC(CN5CCC5)C4)nc4c(OCC(F)(F)F)c(-c5c(C)ccc6[nH]ncc56)c(C5CC5)cc34)CC2)C1` [Compound 6]: in assay [1], the “Anti-tumor effect (regression)” value is reported as 35% regression and the “in vivo activity compared with control drug B” value is “stronger in vivo activity than the control drug B”. Also, the inhibition at 1 µM in the assay on pERK level in H358 cells was more than 90%. In addition, the IC50 in the assay with H358 cells is less than 300 nM.
The corresponding values for `C=CC(=O)N1CC2(CCN(c3nc(N4CC(OC5CN(C)C5)C4)nc4c(OCC(F)(F)F)c(-c5c(C)ccc6[nH]ncc56)c(C5CC5)cc34)CC2)C1` [Compound 14] are 37% regression, “stronger in vivo activity than the control drug B”, more than 90% and less than 300 nM.
The corresponding values for `C=CC(=O)N1CC2(CCN(c3nc(N4CC(N5CC6(CC6)C5)C4)nc4c(OCC(F)(F)F)c(-c5c(C)ccc6[nH]ncc56)c(C5CC5)cc34)CC2)C1` [Compound 28] are 42% regression, “stronger in vivo activity than the control drug B”, more than 90% and less than 300 nM.
On to `C=CC(=O)N1CC2(CCN(c3nc(N4CC(N5CC(O)C5)C4)nc4c(OCC(F)(F)F)c(-c5c(C)ccc6[nH]ncc56)c(C5CC5)cc34)CC2)C1` [Compound 44], for which the “Anti-tumor effect (regression)” value in assay [1] came out at 23% regression. In addition, the inhibition at 1 µM with pERK level in H358 cells was more than 90%. This compound yielded an IC50 in the assay on H358 cells of less than 300 nM.
Take `C=CC(=O)N1CC2(CCN(c3nc(N4CC(C)(N5CCC5)C4)nc4c(OCC(F)(F)F)c(-c5c(C)ccc6[nH]ncc56)c(C5CC5)cc34)CC2)C1` [Compound 60]: in assay [1], the “Anti-tumor effect (regression)” value came to 30% regression and the “in vivo activity compared with control drug B” value is recorded as “stronger in vivo activity than the control drug B”. For the same compound, the inhibition at 1 µM with pERK level in H358 cells was more than 90%. The compound also returned a half-maximal inhibitory concentration (IC50) in the assay with H358 cells of less than 300 nM.
The corresponding values for `C=CC(=O)N1CC2(CCN(c3nc(N4CC(N5CC6(CC6)C5)C4)nc4c(OCC(F)(F)F)c(-c5c(F)ccc6[nH]ncc56)c(C5CC5)cc34)CC2)C1` [Compound 103] are 39% regression, “stronger in vivo activity than the control drug B”, more than 90% and less than 300 nM.
As to `C=CC(=O)N1CC2(CCN(c3nc(N4CC5(CC(=C)CN5C)C4)nc4c(OCC(F)(F)F)c(-c5c(C)ccc6[nH]ncc56)c(C5CC5)cc34)CC2)C1` [Compound 125], in the assay with pERK level in H358 cells, the inhibition at 1 µM was more than 90%. In the assay with H358 cells, the IC50 is less than 300 nM.
The corresponding values for `C=CC(=O)N1CC2(CCN(c3nc(N4CC5(CC(=C)CN5CC)C4)nc4c(OCC(F)(F)F)c(-c5c(C)ccc6[nH]ncc56)c(C5CC5)cc34)CC2)C1` [Compound 126] are more than 90% and less than 300 nM.
The corresponding values for `C=CC(=O)N1CC2(CCN(c3nc(N4CC5(C=CCN5C)C4)nc4c(OCC(F)(F)F)c(-c5c(C)ccc6[nH]ncc56)c(C5CC5)cc34)CC2)C1` [Compound 127] are more than 90% and less than 300 nM.
In the case of `C=CC(=O)N1CC2(CCN(c3nc(N4CC5(C=CCN5CC)C4)nc4c(OCC(F)(F)F)c(-c5c(C)ccc6[nH]ncc56)c(C5CC5)cc34)CC2)C1` [Compound 128], the inhibition at 1 µM in the assay with pERK level in H358 cells was more than 90%. Further, the IC50 in the assay on H358 cells is less than 300 nM.
The corresponding values for `C=CC(=O)N1CC2(CCN(c3nc(N4CC5(C4)CC(F)(F)CN5C)nc4c(OCC(F)(F)F)c(-c5c(C)ccc6[nH]ncc56)c(C5CC5)cc34)CC2)C1` [Compound 129] are more than 90% and less than 300 nM.
The corresponding values for `C=CC(=O)N1CC2(CCN(c3nc(N4CC5(C4)CC(F)(F)CN5CC)nc4c(OCC(F)(F)F)c(-c5c(C)ccc6[nH]ncc56)c(C5CC5)cc34)CC2)C1` [Compound 130] are more than 90% and less than 300 nM.
On to `C=CC(=O)N1CC2(CCN(c3nc(N4CC5(CCCN5C)C4)nc4c(OCC(F)(F)F)c(-c5c(C)ccc6[nH]ncc56)c(C=C)cc34)CC2)C1` [Compound 131], for which, in the assay on pERK level in H358 cells, the inhibition at 1 µM was more than 90%. For the same compound, the IC50 in the assay with H358 cells was less than 300 nM.
Take `C=CC(=O)N1CC2(CCN(c3nc(N4CC5(CCCN5CC)C4)nc4c(OCC(F)(F)F)c(-c5c(C)ccc6[nH]ncc56)c(C=C)cc34)CC2)C1` [Compound 132]: in the assay on pERK level in H358 cells, the inhibition at 1 µM is more than 90%. The compound also came in with an IC50 in the assay with H358 cells of less than 300 nM.

(Values after patent publication US12391692B2, “Spiro ring-containing quinazoline compound” (WIGEN BIOMEDICINE TECHNOLOGY (SHANGHAI) CO., LTD., priority 2020, dated 2025).)
